Assay results: patent US12552787B2, “Quinazoline compound” (MEDSHINE DISCOVERY INC., priority 2020, dated 2026)
pIC50: −log10 of the molar value. Read-outs that look alike come from different tables or passages of the source.

Assays:
[1] = biological target: T1, KRAS(G12C) and SOS1 binding (Homo sapiens, UniProt Q07889); test: KRAS (G12C) and SOS1 binding assay (HTRF); settings: 25° C., 60 minutes, read-out: IC50, inhibitory activity on KRAS(G12C) and SOS1 binding
T1 sequence (Q07889 564-1049): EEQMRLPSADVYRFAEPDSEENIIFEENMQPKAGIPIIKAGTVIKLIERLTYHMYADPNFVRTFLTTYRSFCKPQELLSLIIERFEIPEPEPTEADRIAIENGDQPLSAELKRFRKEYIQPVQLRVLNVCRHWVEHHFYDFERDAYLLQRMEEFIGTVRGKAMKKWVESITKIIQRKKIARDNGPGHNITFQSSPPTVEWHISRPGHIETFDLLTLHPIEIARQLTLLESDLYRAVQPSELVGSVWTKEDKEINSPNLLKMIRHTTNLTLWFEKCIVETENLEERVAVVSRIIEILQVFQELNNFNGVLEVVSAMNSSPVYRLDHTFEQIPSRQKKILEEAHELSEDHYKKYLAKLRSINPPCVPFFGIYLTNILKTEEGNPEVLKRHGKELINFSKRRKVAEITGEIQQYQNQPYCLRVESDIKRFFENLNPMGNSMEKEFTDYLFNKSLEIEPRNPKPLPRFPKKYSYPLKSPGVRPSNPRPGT
Protocol: (§1) 1. Experimental Materials:
Multifunctional microplate reader Nivo5 was purchased from PerkinElmer.
2. Preparation of 1× Buffer:
The buffer for this experiment was the current preparation.
Preparation method: 4-Hydroxyethylpiperazineethanesulfonic acid (Hepes): 5 mM; sodium chloride (NaCl): 150 mM; ethylenediaminetetraacetic acid (EDTA): 10 mM; CO-630 (Igepal): 0.0025%; potassium fluoride (KF): 100 mM; dithiothreitol (DTT): 1 mM; bovine serum albumin (BSA): 0.05%.
• 1) The compounds to be tested were diluted 5-fold with DMSO to the eighth concentration using a row gun, that is, from 1 mM to 0.064 μM. • 2) Each gradient of the compounds to be tested were diluted with 1× buffer into a working solution of 2% DMSO, 5 μL/well was added to the corresponding well, corresponding to a concentration gradient of 20 μM to […], and a double-duplication experiment was set up. The working solution was centrifuged at 1000 rpm for 1 minute. • 3) A mixed working solution of KRAS (G12C) (200 nM) and Mab Anti GST-Eu cryptate (1 ng/μL) was prepared with 1× buffer, then the mixed working solution was incubated at 25° C. for 5 minutes, and 2.5 μL/well was added to the corresponding well. • 4) A mixed working solution of SOS1 (80 nM) and Mab Anti 6HIS-XL665 ([…]) was prepared with 1× buffer, 2.5 μL/well was added to the corresponding well; 2.5 μL of Mab Anti 6HIS-XL665 ([…]) diluent was added to the blank well (Blank), at this time the final concentration gradient of the compounds was 10 μM diluted to 0.64 nM, KRAS (G12C) ([…]), MAb Anti GST-Eu cryptate (0.25 ng/μL), SOS1 (20 nM), Mab Anti 6HIS-XL665 (2 g/μL), and the reaction system was placed at 25° C. for 60 minutes. A multi-label analyzer was used for reading HTRF after the reaction was completed. 4. Data Analysis:
Using the equation (Sample−Min)/(Max−Min)×100% to convert the raw data into inhibition rate, and the value of IC50 might be obtained by curve fitting with four parameters (obtained by “Log(inhibitor) vs. response-Variable slope” mode in GraphPad Prism). Table 1 provides the inhibitory activity of the compounds of the present disclosure on KRAS(G12C) and SOS1 binding.

A427 cells = test: In vitro anti-proliferation assay of A427 cells (KRAS G12D); assay type: cell-based; settings: Homo sapiens, A-427, 336 h; A427 cells in agarose gel, 14 days, Almar blue; read-out: IC50, inhibitory activity on the proliferation of A427 cells
Text: as §1
EMEM culture medium, fetal bovine serum, penicillin/streptomycin antibiotics were purchased from Wisent, and low melting point agarose was purchased from Sigma. Almar blue reagent was purchased from Invitrogen. A427 cell line was purchased from Nanjing Cobioer Biotechnology Co., Ltd. Envision multi-label analyzer (PerkinElmer).
• 1) A427 cells were planted in a 96-well U-shaped plate, and the low melting point agarose was first prepared into a 2% mother solution. When used, the agarose mother solution was first heated in a microwave oven to completely melt, and then placed in a 42° C. water bath to keep the agarose in a liquid state. The gel was added to a serum-containing medium to prepare a gel concentration of 0.6% as the base gel, and spread into a 96-well U-shaped plate at 50 μL per well. After the base gel was solidified, 2% gel was added to a cell-containing medium to prepare a gel concentration of 0.4% of cell-containing top gel with a cell density of 4×10^4 cells/mL, which was added to a 96-well U-shaped plate spread with base gel at 75 μL per well with a cell density of 3000 cells per well. After the top gel was solidified, the cell plate was incubated overnight in a CO2 incubator. • 2) On the day of adding the compounds, 85 μL of liquid medium was added to the 96-well U-shaped plate in which the cells were spread. The compounds to be tested were diluted 3-fold with a row gun to the ninth concentration, that is, from 6 mM to 0.9 μM, and a double-duplication experiment was set up. 97 μL of culture medium was added to a middle plate, and then 2.5 μL of gradient diluted compound per well was transferred to the middle plate according to the corresponding position. After being thoroughly mixed, 40 μL per well was transferred to the cell plate. The concentration range of the compound transferred to the cell plate was 30 μM to 4.5 nM. […] A multi-label analyzer was used for reading. […]

[2] = Pharmacokinetic study in mice; assay type: in vivo; settings: mouse, plasma; for AUC(0-t): read-out: AUC0-24 h
Protocol: The purpose of this experiment is to evaluate the pharmacokinetic behavior of the compounds after a single intravenous injection or intragastric administration in mice. For intravenous injection, the compound was prepared as a clear solution of 0.2 mg/mL, vehicle: 5% DMSO/95% (10% hydroxypropyl-β-cyclodextrin) aqueous solution; for intragastric administration, the compound was prepared as a suspension of 0.3 mg/mL, vehicle: 5% DMSO/95% (10% hydroxypropyl-β-cyclodextrin) aqueous solution.
The concentrations of compounds in plasma were determined by high performance liquid chromatography-tandem mass spectrometry (LC-MS/MS). Retention time of compounds and internal standard (diclofenac), chromatogram acquisition and integration of chromatogram were processed using the software Analyst (Applied Biosystems), and statistics of the data were processed using the software Watson LIMS (Thermo Fisher Scientific) or Analyst (Applied Biosystems). The concentration of analytes in the sample was expressed in ng/mL, with 3 valid digits retained. All values expressed as percentages (for example, % deviation and % coefficient of variation, etc.) were retained to one decimal point. Each calibration curve contained at least 6 concentration levels. The calibration specimen should be prepared using a stock solution from a different source than the quality control sample. The deviation between the calculated concentration of the calibration specimen and the indicated value exceeds ±15.0% (the lower limit of quantification exceeds ±20.0%) and the specimen should be rejected in the regression analysis. The rejected calibration specimens should be less than 25% and each calibration curve should contain at least 6 calibration specimens that meet the acceptance criteria. If the lower and upper limits of quantification calibration specimens need to be rejected, the upper and lower limits of quantification for the analytical batch will be raised and lowered accordingly.
Plasma concentrations were processed using the non-compartmental model of WinNonlin™ Version 6.3 (Pharsight, Mountain View, CA) pharmacokinetic software, and pharmacokinetic parameters were calculated using the linear-log trapezoidal method. The pharmacokinetic parameters to be calculated include but are not limited to (data permitting) T1/2, Vdss, CL, AUC0-24 h of IV group; Cmax, Tmax, AUC0-24 h, oral bioavailability (F %) of PO group.
The relevant pharmacokinetic parameters of the embodiment of the present disclosure in mice intravenously injected at a dose of 1 mg/Kg and intragastrically administered at a dose of 3 mg/Kg are shown in Table 5 below.

[3] = po, intragastric administration, 3 mg/Kg

C=CC(Nc1nc(C)nc2cc(=O)n(C3CCOCC3)cc12)c1cc(N)cc(C(F)(F)F)c1 (stereo not shown) [Compound 1]
pIC50 [1]: 7.49

C=CC(Nc1nc(C)nc2cc(=O)n(C3(C)CCOC3)cc12)c1cc(N)cc(C(F)(F)F)c1 (stereo not shown) [Compound 2]
pIC50 [1]: 7.59

C=CC(Nc1nc(C)nc2cc(=O)n(C3(CF)CC3)cc12)c1cc(N)cc(C(F)(F)F)c1 (stereo not shown) [Compound 3]
pIC50 [1]: 7.60

C=CC(Nc1nc(C)nc2cc(=O)n(C34CCC(O)(CC3)CC4)cc12)c1cc(N)cc(C(F)(F)F)c1 (stereo not shown) [Compound 4]
pIC50 [1]: 7.68

C=C[C@@H](Nc1nc(C)nc2cc(=O)n(C3(C(F)F)CC3)cc12)c1cc(C(F)(F)CO)cs1 [Compound 7]
pIC50 [1]: 7.89

C=C[C@@H](Nc1nc(C)nc2cc(=O)n(C3(C(F)F)CC3)cc12)c1cccc(C(F)F)c1F [Compound 8]
pIC50 (A427 cells): ≥ 7.00 | clearance ([2]; intravenous injection, 1 mg/Kg): 30.5 mL/min/kg | half-life ([2]; intravenous injection, 1 mg/Kg): 40.2 min | AUC(0-t) ([2]; intravenous injection, 1 mg/Kg): 1.77 µM·h | Vd ([2]; intravenous injection, 1 mg/Kg, read-out: Vdss): 1.84 L/kg | bioavailability ([2]; oral, intragastric 3 mg/Kg vs intravenous 1 mg/Kg, read-out: F % (oral bioavailability)): 109% | Cmax [2, 3]: 1380 nM | Tmax [2, 3]: 60 min | AUC(0-t) [2, 3]: 4.11 µM·h

C=C[C@@H](Nc1nc(C)nc2cc(=O)n(C3(C)CCN(C(C)=O)C3)cc12)c1cccc(C(F)F)c1F (stereo partly shown) [Compound 13]
pIC50 (A427 cells): ≥ 7.00

C=C[C@@H](Nc1nc(C)nc2cc(=O)n(C3(C(F)F)CCN(C(C)=O)C3)cc12)c1cccc(C(F)F)c1F (stereo partly shown) [Compound 15]
pIC50 (A427 cells): ≥ 7.00
